What was measured:
Alpha-glucosidase MAL12 [1] = target: T1, Alpha-glucosidase MAL12 (Saccharomyces cerevisiae S288c, UniProt P53341); assay: Inhibition of bakers yeast alpha-glucosidase using p-nitrophenyl-alpha-D-glucopyranoside as substrate incubated for 15 mins followed by substrate addition measured after 30 mins by spectrophotometric analysis
Alpha-glucosidase MAL12 [2] = target: T1, Alpha-glucosidase MAL12; assay: Non-competitive inhibition of bakers yeast alpha-glucosidase using p-nitrophenyl-alpha-D-glucopyranoside as substrate by Lineweaver-Burk plot analysis

T1 sequence (P53341 whole entry): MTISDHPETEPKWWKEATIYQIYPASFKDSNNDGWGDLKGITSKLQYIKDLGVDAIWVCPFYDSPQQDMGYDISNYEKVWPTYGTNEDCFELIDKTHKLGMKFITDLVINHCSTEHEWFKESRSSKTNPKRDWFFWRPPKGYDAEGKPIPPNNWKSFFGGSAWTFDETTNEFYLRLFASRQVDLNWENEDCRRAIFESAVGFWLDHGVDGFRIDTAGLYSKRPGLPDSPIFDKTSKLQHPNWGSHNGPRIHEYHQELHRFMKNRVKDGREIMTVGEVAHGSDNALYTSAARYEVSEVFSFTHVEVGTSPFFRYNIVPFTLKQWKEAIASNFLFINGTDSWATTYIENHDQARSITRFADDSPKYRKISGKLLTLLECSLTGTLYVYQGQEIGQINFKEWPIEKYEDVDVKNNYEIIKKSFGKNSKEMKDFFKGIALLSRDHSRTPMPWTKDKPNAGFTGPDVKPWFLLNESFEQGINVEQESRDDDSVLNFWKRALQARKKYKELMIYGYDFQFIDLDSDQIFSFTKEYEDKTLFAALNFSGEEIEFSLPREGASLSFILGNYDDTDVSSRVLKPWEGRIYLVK

| SMILES | IC50 (Alpha-glucosidase MAL12 [1]) | Ki (Alpha-glucosidase MAL12 [2]) |
| --- | --- | --- |
| COc1ccc(NC(=O)Cn2cc(Cn3c(-c4cccc(Cl)c4)nc(-c4ccccc4)c3-c3ccccc3)nn2)cc1 | 48.2 µM | – |
| CCOc1ccccc1NC(=O)Cn1cc(Cn2c(-c3cccc(Br)c3)nc(-c3ccccc3)c2-c2ccccc2)nn1 | 15.2 µM | 14.8 µM |
| CCOc1ccc(NC(=O)Cn2cc(Cn3c(-c4cccc(Cl)c4)nc(-c4ccccc4)c3-c3ccccc3)nn2)cc1 | 44.2 µM | – |
| Cc1ccc(NC(=O)Cn2cc(Cn3c(-c4cccc(Cl)c4)nc(-c4ccccc4)c3-c3ccccc3)nn2)c(C)c1 | 38.5 µM | – |
| Cc1ccc(NC(=O)Cn2cc(Cn3c(-c4cccc(F)c4)nc(-c4ccccc4)c3-c3ccccc3)nn2)c(C)c1 | 30.1 µM | – |
| COc1cc(-c2nc(-c3ccccc3)c(-c3ccccc3)n2Cc2cn(CC(=O)Nc3ccc(Cl)cc3)nn2)cc(OC)c1OC | 29.2 µM | – |
| Cc1ccccc1NC(=O)Cn1cc(Cn2c(-c3cccc(F)c3)nc(-c3ccccc3)c2-c2ccccc2)nn1 | 32.1 µM | – |
| Cc1ccccc1NC(=O)Cn1cc(Cn2c(-c3ccc(Br)cc3)nc(-c3ccccc3)c2-c2ccccc2)nn1 | 29.3 µM | – |
| CCOc1ccccc1NC(=O)Cn1cc(Cn2c(-c3ccccc3F)nc(-c3ccccc3)c2-c2ccccc2)nn1 | 36.9 µM | – |

More lines, in order of falling IC50 (Alpha-glucosidase MAL12 [1]), values ahead:

| IC50 (Alpha-glucosidase MAL12 [1]) | SMILES | Ki (Alpha-glucosidase MAL12 [2]) |
| --- | --- | --- |
| 27 µM | COc1ccccc1-c1nc(-c2ccccc2)c(-c2ccccc2)n1Cc1cn(CC(=O)Nc2ccc(C)cc2)nn1 | – |
| 24.2 µM | COc1ccc(NC(=O)Cn2cc(Cn3c(-c4cccs4)nc(-c4ccccc4)c3-c3ccccc3)nn2)cc1 | – |
| 22.8 µM | O=C(Cn1cc(Cn2c(-c3ccc(F)cc3)nc(-c3ccccc3)c2-c2ccccc2)nn1)Nc1ccc(Cl)cc1Cl | – |
| 22 µM | O=C(Cn1cc(Cn2c(-c3ccc(Br)cc3)nc(-c3ccccc3)c2-c2ccccc2)nn1)Nc1ccc(F)cc1 | – |
| 21.6 µM | COc1ccc(-c2nc(-c3ccccc3)c(-c3ccccc3)n2Cc2cn(CC(=O)Nc3ccc(Cl)cc3Cl)nn2)cc1OC | – |
| 20.3 µM | COc1cc(-c2nc(-c3ccccc3)c(-c3ccccc3)n2Cc2cn(CC(=O)Nc3cccc(C)c3)nn2)cc(OC)c1OC | – |
| 20.2 µM | COC(=O)c1ccc(-c2nc(-c3ccccc3)c(-c3ccccc3)n2Cc2cn(CC(=O)Nc3cc(Cl)ccc3Cl)nn2)cc1 | – |
| 19.6 µM | CCOc1ccc(NC(=O)Cn2cc(Cn3c(-c4cccc(Br)c4)nc(-c4ccccc4)c3-c3ccccc3)nn2)cc1 | – |
| 17 µM | CCOc1ccc(NC(=O)Cn2cc(Cn3c(-c4ccc(C(=O)OC)cc4)nc(-c4ccccc4)c3-c3ccccc3)nn2)cc1 | – |

Source: ChEMBL document CHEMBL3867466, “Synthesis and biological evaluation of novel 2,4,5-triarylimidazole-1,2,3-triazole derivatives via click chemistry as α-glucosidase inhibitors” (Bioorg Med Chem Lett, 2016)
